Test results: PubChem BioAssay (NCI)
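All cell lines were grown in 96-well plates and treated with compound for 48 hours. Here, GI50 denotes the concentration required for 50% inhibition of growth. The concentration for full growth arrest is given as TGI.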

Tests used:
Experiment in all cases: DTP human tumour cell line panel, 48 h
[1] = system: HOP-62 NSCLC
[2] = system: SF-295 CNS
[3] = system: CCRF-CEM leukemia
[4] = system: COLO 205 colon
[5] = system: RPMI-8226 leukemia
[6] = system: CAKI-1 renal
[7] = system: TK-10 renal
[8] = system: HCT-15 colon
[9] = system: DLD-1 colon
[10] = system: MOLT-4 leukemia
[11] = system: KM12 colon
[12] = system: OVCAR-5 ovarian
[13] = system: KM20L2 colon
[14] = system: HOP-18 NSCLC
[15] = system: LXFL 529 NSCLC
[16] = system: UACC-62 melanoma
[17] = system: SK-MEL-28 melanoma
[18] = system: SW-620 colon
[19] = system: NCI-H226 lung
[20] = system: IGROV1 ovarian
[21] = system: SN12C renal
[22] = system: HCC-2998 colon
[23] = system: A549 NSCLC
[24] = system: MALME-3M melanoma
[25] = system: NCI-H460 lung
[26] = system: UACC-257 melanoma
[27] = system: SK-MEL-5 melanoma
[28] = system: HT29 colon
[29] = system: NCI-H23 lung
[30] = system: EKVX NSCLC
[31] = system: M19-MEL melanoma
[32] = system: SF-539 CNS
[33] = system: SK-OV-3 ovarian
[34] = system: DMS 114 small cell lung
[35] = system: DMS 273 small cell lung
[36] = system: 786-0 renal
[37] = system: HOP-92 NSCLC
[38] = system: HCT-116 colon
[39] = system: K-562 leukemia
[40] = system: A498 renal
[41] = system: RXF 393 renal
[42] = system: SK-MEL-2 melanoma
[43] = system: SF-268 CNS
[44] = system: LOX IMVI melanoma
[45] = system: OVCAR-8 ovarian
[46] = system: ACHN renal
[47] = system: SNB-19 CNS
[48] = system: OVCAR-3 ovarian
[49] = system: XF 498 CNS
[50] = system: M14 melanoma
[51] = system: HL-60(TB) leukemia
[52] = system: SNB-75 CNS
[53] = system: SNB-78 CNS
[54] = system: UO-31 renal
[55] = system: NCI-H522 lung
[56] = system: U251 CNS
[57] = system: SR leukemia
[58] = system: OVCAR-4 ovarian

SMILES: CN(/N=C/c1cccc2cccnc12)c1ccc([N+](=O)[O-])cc1
- TGI [1]: > 100 µM
- TGI [2]: > 100 µM
- TGI [3]: > 100 µM
- TGI [4]: > 100 µM
- TGI [5]: > 100 µM
- TGI [6]: > 100 µM
- TGI [7]: > 100 µM
- TGI [8]: > 100 µM
- TGI [9]: > 100 µM
- TGI [10]: > 100 µM
- TGI [11]: > 100 µM
- TGI [12]: > 100 µM
- TGI [13]: > 100 µM
- TGI [14]: > 100 µM
- TGI [15]: > 100 µM
- TGI [16]: > 100 µM
- TGI [17]: > 100 µM
- TGI [18]: > 100 µM
- TGI [19]: > 100 µM
- TGI [20]: > 100 µM
- TGI [21]: > 100 µM
- TGI [22]: > 100 µM
- TGI [23]: > 100 µM
- TGI [24]: > 100 µM
- TGI [25]: > 100 µM
- TGI [26]: > 100 µM
- TGI [27]: > 100 µM
- TGI [28]: > 100 µM
- TGI [29]: > 100 µM
- TGI [30]: > 100 µM
- TGI [31]: > 100 µM
- TGI [32]: > 100 µM
- TGI [33]: > 100 µM
- TGI [34]: > 100 µM
- TGI [35]: > 100 µM
- TGI [36]: > 100 µM
- TGI [37]: > 100 µM
- TGI [38]: > 100 µM
- TGI [39]: > 100 µM
- TGI [40]: > 100 µM
- TGI [41]: > 100 µM
- TGI [42]: > 100 µM
- TGI [43]: > 100 µM
- TGI [44]: > 100 µM
- TGI [45]: > 100 µM
- TGI [46]: > 100 µM
- TGI [47]: > 100 µM
- TGI [48]: > 100 µM
- TGI [49]: > 100 µM
- TGI [50]: > 100 µM
- TGI [51]: > 100 µM
- TGI [52]: > 100 µM
- TGI [53]: > 100 µM

SMILES: CN(CCO)c1nc(N)cc(=O)[nH]1
- TGI [1]: > 100 µM
- TGI [2]: > 100 µM
- TGI [3]: > 100 µM
- TGI [4]: > 100 µM
- TGI [5]: > 100 µM
- TGI [6]: > 100 µM
- TGI [7]: > 100 µM
- TGI [8]: > 100 µM
- TGI [9]: > 100 µM
- TGI [10]: > 100 µM
- TGI [11]: > 100 µM
- TGI [12]: > 100 µM
- TGI [13]: > 100 µM
- TGI [14]: > 100 µM
- TGI [15]: > 100 µM
- TGI [16]: > 100 µM
- TGI [54]: > 100 µM
- TGI [17]: > 100 µM
- TGI [18]: > 100 µM
- TGI [19]: > 100 µM
- TGI [20]: > 100 µM
- TGI [21]: > 100 µM
- TGI [22]: > 100 µM
- TGI [23]: > 100 µM
- TGI [24]: > 100 µM
- TGI [25]: > 100 µM
- TGI [26]: > 100 µM
- TGI [27]: > 100 µM
- TGI [55]: > 100 µM
- TGI [28]: > 100 µM
- TGI [29]: > 100 µM
- TGI [30]: > 100 µM
- TGI [31]: > 100 µM
- TGI [32]: > 100 µM
- TGI [33]: > 100 µM
- TGI [34]: > 100 µM
- TGI [35]: > 100 µM
- TGI [36]: > 100 µM
- TGI [37]: > 100 µM
- TGI [56]: > 100 µM
- TGI [38]: > 100 µM
- TGI [39]: > 100 µM
- TGI [41]: > 100 µM
- TGI [42]: > 100 µM
- TGI [43]: > 100 µM
- TGI [57]: > 100 µM
- TGI [44]: > 100 µM
- TGI [45]: > 100 µM
- TGI [46]: > 100 µM
- TGI [47]: > 100 µM
- TGI [48]: > 100 µM
- TGI [49]: > 100 µM
- TGI [50]: > 100 µM
- TGI [51]: > 100 µM
- TGI [52]: > 100 µM
- TGI [53]: > 100 µM

SMILES: NCCN.NCCN.O=C[O-].O=C[O-].[Co+3].[O-][Cl+3]([O-])([O-])[O-]
- GI50 [1]: > 100 µM
- TGI [1]: > 100 µM
- GI50 [2]: > 100 µM
- TGI [2]: > 100 µM
- GI50 [3]: > 100 µM
- TGI [3]: > 100 µM
- GI50 [4]: > 100 µM
- TGI [4]: > 100 µM
- GI50 [5]: > 100 µM
- TGI [5]: > 100 µM
- GI50 [6]: > 100 µM
- TGI [6]: > 100 µM
- GI50 [7]: > 100 µM
- TGI [7]: > 100 µM
- GI50 [8]: > 100 µM
- TGI [8]: > 100 µM
- GI50 [9]: > 100 µM
- TGI [9]: > 100 µM
- GI50 [10]: > 100 µM
- TGI [10]: > 100 µM
- GI50 [11]: > 100 µM
- TGI [11]: > 100 µM
- GI50 [12]: > 100 µM
- TGI [12]: > 100 µM
- GI50 [13]: > 100 µM
- TGI [13]: > 100 µM
- GI50 [14]: > 100 µM
- TGI [14]: > 100 µM
- GI50 [15]: > 100 µM
- TGI [15]: > 100 µM
- GI50 [16]: > 100 µM
- TGI [16]: > 100 µM
- GI50 [54]: > 100 µM
- TGI [54]: > 100 µM
- GI50 [17]: > 100 µM
- TGI [17]: > 100 µM
- GI50 [18]: > 100 µM
- TGI [18]: > 100 µM
- GI50 [19]: > 100 µM
- TGI [19]: > 100 µM
- GI50 [20]: > 100 µM
- TGI [20]: > 100 µM
- GI50 [21]: > 100 µM
- TGI [21]: > 100 µM
- GI50 [22]: > 100 µM
- TGI [22]: > 100 µM
- GI50 [23]: > 100 µM
- TGI [23]: > 100 µM
- GI50 [25]: > 100 µM
- TGI [25]: > 100 µM
- GI50 [26]: > 100 µM
- TGI [26]: > 100 µM
- GI50 [27]: > 100 µM
- TGI [27]: > 100 µM
- GI50 [55]: > 100 µM
- TGI [55]: > 100 µM
- GI50 [28]: > 100 µM
- TGI [28]: > 100 µM
- GI50 [29]: > 100 µM
- TGI [29]: > 100 µM
- GI50 [31]: > 100 µM
- TGI [31]: > 100 µM
- GI50 [32]: > 100 µM
- TGI [32]: > 100 µM
- GI50 [33]: > 100 µM
- TGI [33]: > 100 µM
- GI50 [34]: > 100 µM
- TGI [34]: > 100 µM
- GI50 [36]: > 100 µM
- TGI [36]: > 100 µM
- GI50 [37]: > 100 µM
- TGI [37]: > 100 µM
- GI50 [56]: > 100 µM
- TGI [56]: > 100 µM
- GI50 [38]: > 100 µM
- TGI [38]: > 100 µM
- GI50 [39]: > 100 µM
- TGI [39]: > 100 µM
- GI50 [40]: > 100 µM
- TGI [40]: > 100 µM
- GI50 [41]: > 100 µM
- TGI [41]: > 100 µM
- GI50 [42]: > 100 µM
- TGI [42]: > 100 µM
- GI50 [43]: > 100 µM
- TGI [43]: > 100 µM
- GI50 [57]: > 100 µM
- TGI [57]: > 100 µM
- GI50 [44]: > 100 µM
- TGI [44]: > 100 µM
- GI50 [58]: > 100 µM
- TGI [58]: > 100 µM
- GI50 [45]: > 100 µM
- TGI [45]: > 100 µM
- GI50 [46]: > 100 µM
- TGI [46]: > 100 µM
- GI50 [48]: > 100 µM
- TGI [48]: > 100 µM
- GI50 [50]: > 100 µM
- TGI [50]: > 100 µM
- GI50 [51]: > 100 µM
- TGI [51]: > 100 µM
- GI50 [52]: > 100 µM
- TGI [52]: > 100 µM
- GI50 [53]: > 100 µM
- TGI [53]: > 100 µM
